From US7642269B2, “Pyrrolo[3,2-B]pyridine derivatives and processes for the preparation thereof” (Yuhan Corporation, priority 2005, dated 2010)
Counter-ions that a name gives are not always drawn.

Each compound was assayed against T1, H^+/K^+-ATPase (Sus scrofa, UniProt P19156) (assay: Inhibitory effects on proton pump (H^+/K^+-ATPase) activity, hog gastric vesicles). Settings: K^+ stimulated H^+/K^+-ATPase activity, hog gastric vesicle, Pi measured at 620 nm.
T1 construct: used as an enzyme source of the in vitro enzyme reaction assay of proton pump; from tissue; host or cells: hog gastric fundic mucosa (membrane vesicles, lyophilized)
Assay type: biochemical
Protocol: Preparation of Gastric Proton Pump Vesicles
The hog fundic regions containing parietal and peptic cells were scraped with slide-glass. The collected cells were suspended in 10 ml of 0.25M sucrose buffer and homogenized using a tight-fitting Teflon-glass homogenizer. The homogenate was centrifuged for 35 min at 8,000 rpm and the pellet was discarded. The supernatant was further centrifuged for 75 min at 25,000 rpm. The resulting pellets were re-suspended in the sucrose buffer (10 ml), and then the suspension was laid onto discontinuous density gradients consisting of 0.25M sucrose buffer and isolation medium containing 9% Ficoll (w/w). After being centrifuged for 3 hours and 15 minutes at 100,000×g, the material at the interface of sucrose buffer and Ficoll solution was collected and then centrifuged for 40 minutes at 100,000×g. The resulting pellets were re-suspended in 1 ml of 5 mM Hepes/Tris buffer (pH 6.1). This material was lyophilized and stored at −70° C. and used as an enzyme source of the in vitro enzyme reaction assay of proton pump.
1-2. Measurement of Inhibitory Effects on Proton Pump (H+/K+-ATPase) activity
The inhibitory effects of the compounds of the present invention against proton pump activity were evaluated in 96-well plate. In this assay, the K^+ specific H^+/K^+-ATPase activity was calculated based on the difference between the activity of H^+/K^+-ATPase activity with K^+ and without K^+ ion. In 96-well plate, 1% dimethylsulfoxide (DMSO) in buffer was added to negative and positive control groups and the diluted compounds of the present invention in buffer were added to test group. All assays were performed in 100 μl reaction volume at room temperature, and the hog gastric vesicle was kept in ice before use. At the beginning of the reaction, 10 μl of reaction buffer containing 1% DMSO was added to the negative and positive control groups and to each concentration of compounds in the test group. Then lyophilized vesicle in 5 mM Pipes/Tris buffer (pH 6.1) was pre-incubated in the presence of various concentrations of test compounds. After a 5 minute incubation, negative and positive buffers were respectively added to the previous reaction mixture. As the substrate, ATP was added to the reaction buffer, and incubated for 30 minutes at 37° C. Enzymatic activity was stopped by the addition of colorimetric reagent (2× malachite green, 1× ammonium molybdate, 1× polyvinyl alcohol, 2× H2O) and the amount of mono phosphate (Pi) in the reaction was measured at 620 nm using the micro plate reader (Genios Pro, TECAN). The difference between the Pi production with K^+ and without K^+ is taken as K^+ stimulated H^+/K^+-ATPase activity.

T1 sequence (P19156 2-1034 limits assumed): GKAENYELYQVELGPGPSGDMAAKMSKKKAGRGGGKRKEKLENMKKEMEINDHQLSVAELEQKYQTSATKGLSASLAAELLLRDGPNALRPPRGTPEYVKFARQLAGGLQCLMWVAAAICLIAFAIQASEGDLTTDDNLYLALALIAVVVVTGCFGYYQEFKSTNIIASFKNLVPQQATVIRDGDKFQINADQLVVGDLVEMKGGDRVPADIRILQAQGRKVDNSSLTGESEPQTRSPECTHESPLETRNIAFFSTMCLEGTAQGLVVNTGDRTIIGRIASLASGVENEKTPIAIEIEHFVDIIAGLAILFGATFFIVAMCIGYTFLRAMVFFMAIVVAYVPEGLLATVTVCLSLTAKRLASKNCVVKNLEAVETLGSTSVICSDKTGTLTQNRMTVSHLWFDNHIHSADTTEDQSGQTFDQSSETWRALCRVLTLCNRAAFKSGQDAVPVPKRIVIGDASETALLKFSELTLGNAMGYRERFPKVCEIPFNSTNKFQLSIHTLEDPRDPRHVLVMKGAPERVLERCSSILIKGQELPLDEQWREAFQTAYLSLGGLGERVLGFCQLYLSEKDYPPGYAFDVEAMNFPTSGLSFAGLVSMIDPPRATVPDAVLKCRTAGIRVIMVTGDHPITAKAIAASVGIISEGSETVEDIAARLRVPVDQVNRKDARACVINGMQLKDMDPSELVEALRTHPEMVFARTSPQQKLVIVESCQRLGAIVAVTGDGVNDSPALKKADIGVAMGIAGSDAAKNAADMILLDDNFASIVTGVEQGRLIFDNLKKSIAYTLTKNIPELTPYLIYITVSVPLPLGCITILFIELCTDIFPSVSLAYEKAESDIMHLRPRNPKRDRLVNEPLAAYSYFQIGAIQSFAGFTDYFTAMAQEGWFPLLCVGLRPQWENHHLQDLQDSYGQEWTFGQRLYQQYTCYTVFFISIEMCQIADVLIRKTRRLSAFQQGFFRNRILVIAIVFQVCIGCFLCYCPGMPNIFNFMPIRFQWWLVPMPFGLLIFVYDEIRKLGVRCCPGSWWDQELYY
T1 sequence (P18434 whole entry partner): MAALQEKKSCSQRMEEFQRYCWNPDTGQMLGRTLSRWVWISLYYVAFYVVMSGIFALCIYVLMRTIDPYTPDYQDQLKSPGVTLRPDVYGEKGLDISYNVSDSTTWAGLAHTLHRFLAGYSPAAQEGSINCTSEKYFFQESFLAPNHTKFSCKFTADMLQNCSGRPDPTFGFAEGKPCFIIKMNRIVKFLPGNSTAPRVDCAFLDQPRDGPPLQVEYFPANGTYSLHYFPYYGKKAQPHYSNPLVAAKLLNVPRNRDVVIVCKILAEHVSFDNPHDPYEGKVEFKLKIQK

SMILES	IC50
Cc1c(C)n(Cc2ccc(Cl)cc2)c2c(OCc3ccc(Cl)cc3)ccnc12 [Example 88, 7-(4-chlorobenzyloxy)-1-(4-chlorobenzyl)-2,3-dimethyl-1H-pyrrolo[3,2-b]pyridine hydrochloride]	670 nM
Cc1c(C)n(Cc2ccccc2F)c2c(OCc3ccc(Cl)cc3)ccnc12 [Example 89, 7-(4-chlorobenzyloxy)-1-(2-fluorobenzyl)-2,3-dimethyl-1H-pyrrolo[3,2-b]pyridine hydrochloride]	340 nM
CCn1c(C)c(C)c2nccc(OCc3ccc(Cl)cc3)c21 [Example 90, 7-(4-chlorobenzyloxy)-1-ethyl-2,3-dimethyl-1H-pyrrolo[3,2-b]pyridine hydrochloride]	140 nM
Cc1c(C)n(Cc2ccc(F)cc2)c2c(OCc3ccc(Cl)cc3)ccnc12 [Example 91, 7-(4-chlorobenzyloxy)-1-(4-fluorobenzyl)-2,3-dimethyl-1H-pyrrolo[3,2-b]pyridine hydrochloride]	460 nM
COc1cccc(Cn2c(C)c(C)c3nccc(OCc4ccc(Cl)cc4)c32)c1 [Example 92, 7-(4-chlorobenzyloxy)-1-(3-methoxybenzyl)-2,3-dimethyl-1H-pyrrolo[3,2-b]pyridine hydrochloride]	50 nM
Cc1c(C)n(Cc2cccc(F)c2)c2c(OCc3ccc(Cl)cc3)ccnc12 [Example 93, 7-(4-chlorobenzyloxy)-1-(3-fluorobenzyl)-2,3-dimethyl-1H-pyrrolo[3,2-b]pyridine hydrochloride]	50 nM
Cc1cccc(Cn2c(C)c(C)c3nccc(OCc4ccc(Cl)cc4)c32)c1 [Example 95, 7-(4-chlorobenzyloxy)-1-(3-methylbenzyl)-2,3-dimethyl-1H-pyrrolo[3,2-b]pyridine hydrochloride]	520 nM
Cc1ccc(Cn2c(C)c(C)c3nccc(OCc4ccc(Cl)cc4)c32)cc1 [Example 96, 7-(4-chlorobenzyloxy)-1-(4-methylbenzyl)-2,3-dimethyl-1H-pyrrolo[3,2-b]pyridine hydrochloride]	130 nM
C=CCn1c(C)c(C)c2nccc(OCc3ccc4c(c3)OCO4)c21 [Example 98, 1-allyl-7-(benzo[1,3]dioxol-5-ylmethoxy)-2,3-dimethyl-1H-pyrrolo[3,2-b]pyridine hydrochloride]	620 nM
COCCn1c(C)c(C)c2nccc(OCc3ccc4c(c3)OCO4)c21 [Example 99, 7-(benzo[1,3]dioxol-5-ylmethoxy)-1-(2-methoxyethyl)-2,3-dimethyl-1H-pyrrolo[3,2-b]pyridine hydrochloride]	630 nM
Cc1c(C)n(CC2OCCO2)c2c(OCc3ccc4c(c3)OCO4)ccnc12 [Example 100, 7-(benzo[1,3]dioxol-5-ylmethoxy)-1-([1,3]-dioxolan-2-ylmethyl)-2,3-dimethyl-1H-pyrrolo[3,2-b]pyridine hydrochloride]	2820 nM
Cc1c(C)n(Cc2ccccc2F)c2c(OCc3ccc4c(c3)OCO4)ccnc12 [Example 101, 7-(benzo[1,3]dioxol-5-ylmethoxy)-1-(2-fluorobenzyl)-2,3-dimethyl-1H-pyrrolo[3,2-b]pyridine hydrochloride]	1010 nM
Cc1cccc(Cn2c(C)c(C)c3nccc(OCc4ccc5c(c4)OCO5)c32)c1 [Example 113, 7-(benzo[1,3]dioxol-5-ylmethoxy)-2,3-dimethyl-1-(3-methylbenzyl)-1H-pyrrolo[3,2-b]pyridine hydrochloride]	1420 nM
Cc1ccc(Cn2c(C)c(C)c3nccc(OCc4ccc5c(c4)OCO5)c32)cc1 [Example 114, 7-(benzo[1,3]dioxol-5-ylmethoxy)-1-(4-methylbenzyl)-2,3-dimethyl-1H-pyrrolo[3,2-b]pyridine hydrochloride]	70 nM
Cc1c(C)n(Cc2ccccc2)c2c(OCc3ccc4c(c3)OCO4)ccnc12 [Example 115, 7-(benzo[1,3]dioxol-5-ylmethoxy)-1-benzyl-2,3-dimethyl-1H-pyrrolo[3,2-b]pyridine hydrochloride]	130 nM
Cc1c(C)n(Cc2cccc(F)c2)c2c(OCc3ccc4c(c3)OCO4)ccnc12 [Example 116, 7-(benzo[1,3]dioxol-5-ylmethoxy)-1-(3-fluorobenzyl)-2,3-dimethyl-1H-pyrrolo[3,2-b]pyridine hydrochloride]	150 nM
CCn1c(C)c(C)c2nccc(OCc3ccc4c(c3)OCO4)c21 [Example 117, 7-(benzo[1,3]dioxol-5-ylmethoxy)-1-ethyl-2,3-dimethyl-1H-pyrrolo[3,2-b]pyridine hydrochloride]	720 nM

SMILES	IC50
Cc1c(C)n(Cc2ccc(F)cc2)c2c(OCc3ccc4c(c3)OCO4)ccnc12 [Example 118, 7-(benzo[1,3]dioxol-5-ylmethoxy)-1-(4-fluorobenzyl)-2,3-dimethyl-1H-pyrrolo[3,2-b]pyridine hydrochloride]	460 nM
COc1cccc(Cn2c(C)c(C)c3nccc(OCc4ccc5c(c4)OCO5)c32)c1 [Example 119, 7-(benzo[1,3]dioxol-5-ylmethoxy)-1-(3-methoxybenzyl)-2,3-dimethyl-1H-pyrrolo[3,2-b]pyridine hydrochloride]	230 nM
Cc1c(C)n(CC(C)C)c2c(OCc3ccc4c(c3)OCO4)ccnc12 [Example 120, 7-(benzo[1,3]dioxol-5-ylmethoxy)-1-isobutyl-2,3-dimethyl-1H-pyrrolo[3,2-b]pyridine hydrochloride]	120 nM
Cc1c(C)n(CC2CC2)c2c(OCc3ccc4c(c3)OCO4)ccnc12 [Example 121, 7-(benzo[1,3]dioxol-5-ylmethoxy)-1-cyclopropylmethyl-2,3-dimethyl-1H-pyrrolo[3,2-b]pyridine hydrochloride]	320 nM
COCCn1c(C)c(C)c2nccc(OCc3ccc(F)cc3)c21 [Example 122, 7-(4-fluorobenzyloxy)-1-(2-methoxyethyl)-2,3-dimethyl-1H-pyrrolo[3,2-b]pyridine]	20 nM
COCCn1c(C)c(C)c2nccc(OCc3ccc(F)cc3)c21 [Example 123, 7-(4-fluorobenzyloxy)-1-(2-methoxyethyl)-2,3-dimethyl-1H-pyrrolo[3,2-b]pyridine methanesulfonate]	60 nM
COCCn1c(C)c(C)c2nccc(OCc3ccc(F)cc3)c21 [Example 124, 7-(4-fluorobenzyloxy)-1-(2-methoxyethyl)-2,3-dimethyl-1H-pyrrolo[3,2-b]pyridine benzenesulfonate]	50 nM
COCCn1c(C)c(C)c2nccc(OCc3ccc(F)cc3)c21 [Example 125, 7-(4-fluorobenzyloxy)-1-(2-methoxyethyl)-2,3-dimethyl-1H-pyrrolo[3,2-b]pyridine p-toluenesulfonate]	50 nM
COCCn1c(C)c(C)c2nccc(OCc3ccc(F)cc3)c21 [Example 126, 7-(4-fluorobenzyloxy)-1-(2-methoxyethyl)-2,3-dimethyl-1H-pyrrolo[3,2-b]pyridine nitrate]	50 nM
COCCn1c(C)c(C)c2nccc(OCc3ccc(F)cc3)c21 [Example 127, 7-(4-fluorobenzyloxy)-1-(2-methoxyethyl)-2,3-dimethyl-1H-pyrrolo[3,2-b]pyridine sulfate]	40 nM
COCCn1c(C)c(C)c2nccc(OCc3ccc(F)cc3)c21 [Example 128, 7-(4-fluorobenzyloxy)-1-(2-methoxyethyl)-2,3-dimethyl-1H-pyrrolo[3,2-b]pyridine maleate]	50 nM
COCCn1c(C)c(C)c2nccc(OCc3ccc(F)cc3)c21 [Example 129, 7-(4-fluorobenzyloxy)-1-(2-methoxyethyl)-2,3-dimethyl-1H-pyrrolo[3,2-b]pyridine phosphate]	40 nM
COCCn1c(C)c(C)c2nccc(OCc3ccc(F)cc3)c21 [Example 130, 7-(4-fluorobenzyloxy)-1-(2-methoxyethyl)-2,3-dimethyl-1H-pyrrolo[3,2-b]pyridine malonate]	40 nM
COCCn1c(C)c(C)c2nccc(OCc3ccc(F)cc3)c21 [Example 131, 7-(4-fluorobenzyloxy)-1-(2-methoxyethyl)-2,3-dimethyl-1H-pyrrolo[3,2-b]pyridine camphosulfonate]	60 nM
COCCn1c(C)c(C)c2nccc(OCc3ccc(F)cc3)c21 [Example 132, 7-(4-fluorobenzyloxy)-1-(2-methoxyethyl)-2,3-dimethyl-1H-pyrrolo[3,2-b]pyridine oxalate]	50 nM
COCCn1c(C)c(C)c2nccc(OCc3ccc(F)cc3)c21 [Example 133, 7-(4-fluorobenzyloxy)-1-(2-methoxyethyl)-2,3-dimethyl-1H-pyrrolo[3,2-b]pyridine hydrobromide]	60 nM
